Calls of active or inactive are those of the source. The calls are words filed in the database; no cut-off is given here.
What was measured:
Histamine H4 receptor [1] = target: T1, Histamine H4 receptor (Homo sapiens, UniProt Q9H3N8); settings: HEK293
Histamine H4 receptor [2] = target: T2, Histamine H4 receptor (Rattus norvegicus, UniProt Q91ZY1); assay: (§1) Antagonist activity at rat histamine H4 receptor expressed in HEK293 cells assessed as inhibition of histamine-induced intracellular calcium elevation by FLIPR assay; format: functional, cell-based
T2 sequence (Q91ZY1 whole entry): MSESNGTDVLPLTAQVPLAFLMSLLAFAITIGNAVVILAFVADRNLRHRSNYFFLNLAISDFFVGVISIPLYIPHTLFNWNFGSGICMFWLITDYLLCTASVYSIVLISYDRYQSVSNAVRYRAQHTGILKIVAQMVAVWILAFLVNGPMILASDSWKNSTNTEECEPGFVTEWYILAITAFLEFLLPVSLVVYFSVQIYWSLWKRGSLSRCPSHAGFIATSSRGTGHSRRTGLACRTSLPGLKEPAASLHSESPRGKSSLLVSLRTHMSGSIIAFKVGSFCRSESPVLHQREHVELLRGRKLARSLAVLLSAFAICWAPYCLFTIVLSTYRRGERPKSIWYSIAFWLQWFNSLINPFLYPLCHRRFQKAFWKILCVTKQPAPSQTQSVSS

[3] = target: Histamine H4 receptor (Rattus norvegicus) (UniProt Q91ZY1); assay: as §1; format: functional, cell-based
Chain of Histamine H4 receptor (Rattus norvegicus) (Q91ZY1 whole entry): as above

BMMC = assay: Blockade of histamine-induced morphological changes in BALB/c mouse BMMC by flow cytometry; format: functional, cell-based
Mus musculus [4] = assay: Inhibition of clobenpropit-induced itching in ip dosed CD1/ICR mouse assessed as blockade of scratching in hind paw for 25 mins pretreated 30 mins before clobenpropit challenge; format: functional
[5] = Selectivity ratio of Ki for human histamine H4 receptor to Ki for adrenergic alpha1 receptor
Histamine H4 receptor [6] = target: T3, Histamine H4 receptor (Mus musculus, UniProt Q91ZY2); assay: Antagonist activity at mouse histamine H4 receptor expressed in HEK293 cells assessed as inhibition of histamine-induced intracellular calcium elevation by FLIPR assay; format: functional, cell-based
T3 sequence (Q91ZY2 whole entry): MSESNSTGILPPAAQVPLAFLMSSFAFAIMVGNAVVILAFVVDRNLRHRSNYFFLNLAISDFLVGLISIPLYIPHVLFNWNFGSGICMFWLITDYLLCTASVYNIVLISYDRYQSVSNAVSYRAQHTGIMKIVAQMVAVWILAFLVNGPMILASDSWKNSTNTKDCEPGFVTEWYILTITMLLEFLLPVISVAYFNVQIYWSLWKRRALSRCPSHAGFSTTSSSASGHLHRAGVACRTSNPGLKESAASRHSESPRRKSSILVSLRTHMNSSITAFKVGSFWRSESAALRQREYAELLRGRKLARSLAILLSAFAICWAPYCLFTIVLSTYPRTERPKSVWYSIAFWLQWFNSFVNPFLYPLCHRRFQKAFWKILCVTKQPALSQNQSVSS

[7] = target: T4, Prostaglandin G/H synthase 2 (Homo sapiens) (UniProt P35354); assay: Binding affinity at COX2
T4 sequence (whole entry): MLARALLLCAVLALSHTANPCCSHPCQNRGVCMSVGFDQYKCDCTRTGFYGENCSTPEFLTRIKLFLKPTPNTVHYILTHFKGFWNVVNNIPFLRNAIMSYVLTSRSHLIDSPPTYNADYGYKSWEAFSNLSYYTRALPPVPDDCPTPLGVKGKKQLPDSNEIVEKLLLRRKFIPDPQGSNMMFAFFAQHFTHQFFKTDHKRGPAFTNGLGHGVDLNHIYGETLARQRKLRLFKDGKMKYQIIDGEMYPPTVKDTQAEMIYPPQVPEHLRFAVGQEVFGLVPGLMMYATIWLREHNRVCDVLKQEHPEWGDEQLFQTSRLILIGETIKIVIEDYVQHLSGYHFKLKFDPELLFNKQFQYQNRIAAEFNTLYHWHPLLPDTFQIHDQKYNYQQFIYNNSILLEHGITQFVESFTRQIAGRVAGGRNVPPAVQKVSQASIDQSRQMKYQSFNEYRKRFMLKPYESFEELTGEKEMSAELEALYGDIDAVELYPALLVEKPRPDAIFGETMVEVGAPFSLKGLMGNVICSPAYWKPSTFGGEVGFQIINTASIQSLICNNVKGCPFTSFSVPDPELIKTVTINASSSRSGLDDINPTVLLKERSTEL

[8] = Selectivity ratio of Ki for human histamine H4 receptor to Ki for dopamine D2 receptor
Liver microsomes [9] = assay: Metabolic stability in rat liver microsomes; format: ADME, Microsome
Histamine H4 receptor [10] = target: T1, Histamine H4 receptor; assay: Displacement of [3H]histamine from human histamine H4 receptor expressed in HEK293 cells; format: cell-based
Cytochrome P450 2D6 = Cytochrome P450 2D6 (Homo sapiens, UniProt P10635); assay: Inhibition of CYP2D6 upto 10 uM; format: ADME
Chain of Cytochrome P450 2D6 (P10635 whole entry): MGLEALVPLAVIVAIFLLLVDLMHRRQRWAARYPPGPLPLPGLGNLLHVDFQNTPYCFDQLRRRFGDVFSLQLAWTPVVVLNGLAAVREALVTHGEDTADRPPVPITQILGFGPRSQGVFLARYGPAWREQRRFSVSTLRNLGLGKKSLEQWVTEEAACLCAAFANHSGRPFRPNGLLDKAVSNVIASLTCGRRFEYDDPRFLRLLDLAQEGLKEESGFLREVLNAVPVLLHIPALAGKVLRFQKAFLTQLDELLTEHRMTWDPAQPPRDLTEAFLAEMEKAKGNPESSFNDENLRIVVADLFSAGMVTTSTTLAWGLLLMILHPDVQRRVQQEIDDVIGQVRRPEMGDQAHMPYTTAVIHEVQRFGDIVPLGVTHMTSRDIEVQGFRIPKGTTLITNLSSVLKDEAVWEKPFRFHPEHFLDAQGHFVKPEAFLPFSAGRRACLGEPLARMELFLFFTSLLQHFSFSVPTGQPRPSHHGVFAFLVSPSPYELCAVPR

[11] = Metabolic stability in mouse liver microsomes; format: ADME, Microsome
Homo sapiens = species on record: Homo sapiens; assay: Selectivity ratio of Ki for human histamine H4 receptor to Ki for human histamine H3 receptor
[12] = target: Cannabinoid receptor 1 (Homo sapiens) (UniProt P21554); assay: Binding affinity to CB1 receptor
Chain of Cannabinoid receptor 1 (Homo sapiens) (P21554 whole entry): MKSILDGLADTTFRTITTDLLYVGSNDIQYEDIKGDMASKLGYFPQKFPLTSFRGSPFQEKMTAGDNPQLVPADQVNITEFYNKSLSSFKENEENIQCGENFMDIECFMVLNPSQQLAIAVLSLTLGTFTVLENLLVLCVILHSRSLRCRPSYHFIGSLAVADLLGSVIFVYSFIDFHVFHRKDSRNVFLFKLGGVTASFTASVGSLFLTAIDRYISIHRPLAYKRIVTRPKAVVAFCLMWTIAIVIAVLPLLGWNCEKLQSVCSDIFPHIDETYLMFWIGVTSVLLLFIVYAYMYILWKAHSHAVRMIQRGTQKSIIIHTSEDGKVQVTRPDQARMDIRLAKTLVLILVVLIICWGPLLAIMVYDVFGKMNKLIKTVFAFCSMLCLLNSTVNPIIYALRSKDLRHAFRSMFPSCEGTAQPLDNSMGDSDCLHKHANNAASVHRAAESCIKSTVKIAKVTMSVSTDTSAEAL

[13] = target: Mu-type opioid receptor (Homo sapiens) (UniProt P35372); assay: Binding affinity to mu opioid receptor
Chain of Mu-type opioid receptor (Homo sapiens) (P35372 whole entry): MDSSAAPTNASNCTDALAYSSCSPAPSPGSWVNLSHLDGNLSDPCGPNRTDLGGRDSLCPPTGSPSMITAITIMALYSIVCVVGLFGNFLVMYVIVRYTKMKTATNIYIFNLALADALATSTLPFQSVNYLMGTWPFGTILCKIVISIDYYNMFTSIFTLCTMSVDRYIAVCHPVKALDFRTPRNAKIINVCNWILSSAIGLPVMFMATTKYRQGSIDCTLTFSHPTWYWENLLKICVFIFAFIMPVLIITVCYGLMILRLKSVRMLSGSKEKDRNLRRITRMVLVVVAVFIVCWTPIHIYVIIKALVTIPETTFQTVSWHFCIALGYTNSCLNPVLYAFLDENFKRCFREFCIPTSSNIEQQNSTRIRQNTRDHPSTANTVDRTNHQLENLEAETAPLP

[14] = target: Kappa-type opioid receptor (Homo sapiens) (UniProt P41145); assay: Binding affinity to kappa opioid receptor
Chain of Kappa-type opioid receptor (Homo sapiens) (P41145 whole entry): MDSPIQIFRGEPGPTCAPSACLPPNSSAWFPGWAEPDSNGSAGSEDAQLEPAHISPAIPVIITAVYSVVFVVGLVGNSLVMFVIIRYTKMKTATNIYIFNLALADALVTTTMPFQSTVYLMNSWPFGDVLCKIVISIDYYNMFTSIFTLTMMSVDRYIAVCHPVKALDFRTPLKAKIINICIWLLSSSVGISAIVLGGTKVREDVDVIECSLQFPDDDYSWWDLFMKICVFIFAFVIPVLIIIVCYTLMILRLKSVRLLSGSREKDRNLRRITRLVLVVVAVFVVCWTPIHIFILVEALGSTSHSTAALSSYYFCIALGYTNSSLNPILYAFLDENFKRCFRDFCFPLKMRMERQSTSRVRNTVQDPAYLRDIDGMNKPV

Cytochrome P450 2C9 = Cytochrome P450 2C9 (Homo sapiens, UniProt P11712); assay: Inhibition of CYP2C9 upto 10 uM; format: ADME
Chain of Cytochrome P450 2C9 (P11712 whole entry): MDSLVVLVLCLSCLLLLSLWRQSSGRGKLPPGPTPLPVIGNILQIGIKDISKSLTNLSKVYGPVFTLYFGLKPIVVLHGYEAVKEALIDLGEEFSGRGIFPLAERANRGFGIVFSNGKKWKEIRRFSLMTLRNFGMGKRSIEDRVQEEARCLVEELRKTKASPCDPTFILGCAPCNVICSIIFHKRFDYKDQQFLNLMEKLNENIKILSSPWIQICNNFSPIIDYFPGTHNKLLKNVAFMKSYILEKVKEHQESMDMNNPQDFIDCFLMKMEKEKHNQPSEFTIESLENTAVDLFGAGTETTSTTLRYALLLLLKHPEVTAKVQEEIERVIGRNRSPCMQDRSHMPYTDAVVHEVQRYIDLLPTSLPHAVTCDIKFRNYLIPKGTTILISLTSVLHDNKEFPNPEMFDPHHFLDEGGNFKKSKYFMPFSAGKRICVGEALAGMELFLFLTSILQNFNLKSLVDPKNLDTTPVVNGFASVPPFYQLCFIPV

[15] = Selectivity ratio of Ki for human histamine H4 receptor to Ki for 5HT1A receptor
[16] = Fractional bioavailability in rat at 10 mg/kg, iv and 10 mg/kg, po; format: ADME, organism-based; settings: in vivo
[17] = target: Delta-type opioid receptor (Homo sapiens) (UniProt P41143); assay: Binding affinity to delta opioid receptor
Chain of Delta-type opioid receptor (Homo sapiens) (P41143 whole entry): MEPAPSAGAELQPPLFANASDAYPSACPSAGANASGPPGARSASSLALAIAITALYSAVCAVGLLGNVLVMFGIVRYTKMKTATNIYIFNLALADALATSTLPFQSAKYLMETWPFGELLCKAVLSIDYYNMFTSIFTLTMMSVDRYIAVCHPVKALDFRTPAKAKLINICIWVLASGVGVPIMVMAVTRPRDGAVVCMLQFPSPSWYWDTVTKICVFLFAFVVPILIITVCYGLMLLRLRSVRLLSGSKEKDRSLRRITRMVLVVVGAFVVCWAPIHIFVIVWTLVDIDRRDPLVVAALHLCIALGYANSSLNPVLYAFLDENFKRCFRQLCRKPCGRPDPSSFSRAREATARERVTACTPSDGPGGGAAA

[18] = Selectivity ratio of Ki for human histamine H4 receptor to Ki for histamine H1 receptor
Mus musculus [19] = assay: Antiinflammatory activity against ip dosed BALB/c mouse assessed as inhibition of zymosan-induced peritonitis after 2 hrs pretreated 30 mins before zymosan challenge; format: functional
[20] = Selectivity ratio of Ki for human histamine H4 receptor to Ki for 5HT2A receptor
Histamine H4 receptor [21] = target: T2, Histamine H4 receptor; assay: Displacement of [3H]histamine from rat histamine H4 receptor expressed in HEK293 cells; format: cell-based
[22] = Selectivity ratio of Ki for human histamine H4 receptor to Ki for histamine H2 receptor
[23] = Half life in rat at 10 mg/kg, iv; format: ADME, organism-based; parameters: dose 10 mg/kg, route intravenous; settings: in vivo
[24] = Selectivity ratio of Ki for human histamine H4 receptor to Ki for 5HT1D receptor
Liver microsomes [25] = assay: Metabolic stability in human liver microsomes; format: ADME, Microsome
[26] = Terminal volume of distribution in rat at 10 mg/kg, iv; format: ADME, organism-based; parameters: dose 10 mg/kg, route intravenous; settings: in vivo, read-out: Vbeta
[27] = Blood clearance in rat at 10 mg/kg, iv; format: ADME, organism-based; parameters: dose 10 mg/kg, route intravenous; settings: whole blood
Cytochrome P450 3A4 = Cytochrome P450 3A4 (Homo sapiens, UniProt P08684); assay: Inhibition of CYP3A4 upto 10 uM; format: ADME
Chain of Cytochrome P450 3A4 (P08684 whole entry): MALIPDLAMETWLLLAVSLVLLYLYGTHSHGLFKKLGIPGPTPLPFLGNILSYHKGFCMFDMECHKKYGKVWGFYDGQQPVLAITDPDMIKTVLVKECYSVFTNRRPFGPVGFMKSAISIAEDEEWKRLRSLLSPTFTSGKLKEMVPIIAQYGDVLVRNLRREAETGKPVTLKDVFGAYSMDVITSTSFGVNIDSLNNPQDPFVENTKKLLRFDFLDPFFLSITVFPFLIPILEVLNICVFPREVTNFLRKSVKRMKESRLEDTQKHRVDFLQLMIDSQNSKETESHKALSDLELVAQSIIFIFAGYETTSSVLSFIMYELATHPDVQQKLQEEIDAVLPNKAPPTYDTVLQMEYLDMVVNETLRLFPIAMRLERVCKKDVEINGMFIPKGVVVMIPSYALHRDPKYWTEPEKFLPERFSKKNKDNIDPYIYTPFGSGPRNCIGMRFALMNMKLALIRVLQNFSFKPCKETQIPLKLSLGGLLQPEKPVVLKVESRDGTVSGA

[28] = target: Cannabinoid receptor 2 (Homo sapiens) (UniProt P34972); assay: Binding affinity to CB2 receptor
Chain of Cannabinoid receptor 2 (Homo sapiens) (P34972 whole entry): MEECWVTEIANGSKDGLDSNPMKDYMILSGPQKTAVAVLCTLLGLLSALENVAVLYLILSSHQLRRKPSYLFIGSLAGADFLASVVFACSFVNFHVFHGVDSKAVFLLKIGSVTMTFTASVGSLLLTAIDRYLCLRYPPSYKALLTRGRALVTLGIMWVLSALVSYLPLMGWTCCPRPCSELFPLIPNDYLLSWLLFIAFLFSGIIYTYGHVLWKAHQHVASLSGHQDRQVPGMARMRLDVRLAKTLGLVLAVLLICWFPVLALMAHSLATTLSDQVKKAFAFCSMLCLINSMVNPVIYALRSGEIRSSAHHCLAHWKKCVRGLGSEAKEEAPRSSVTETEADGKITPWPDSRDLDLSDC

[29] = target: Prostaglandin G/H synthase 1 (Homo sapiens) (UniProt P23219); assay: Binding affinity at COX1
Chain of Prostaglandin G/H synthase 1 (Homo sapiens) (P23219 whole entry): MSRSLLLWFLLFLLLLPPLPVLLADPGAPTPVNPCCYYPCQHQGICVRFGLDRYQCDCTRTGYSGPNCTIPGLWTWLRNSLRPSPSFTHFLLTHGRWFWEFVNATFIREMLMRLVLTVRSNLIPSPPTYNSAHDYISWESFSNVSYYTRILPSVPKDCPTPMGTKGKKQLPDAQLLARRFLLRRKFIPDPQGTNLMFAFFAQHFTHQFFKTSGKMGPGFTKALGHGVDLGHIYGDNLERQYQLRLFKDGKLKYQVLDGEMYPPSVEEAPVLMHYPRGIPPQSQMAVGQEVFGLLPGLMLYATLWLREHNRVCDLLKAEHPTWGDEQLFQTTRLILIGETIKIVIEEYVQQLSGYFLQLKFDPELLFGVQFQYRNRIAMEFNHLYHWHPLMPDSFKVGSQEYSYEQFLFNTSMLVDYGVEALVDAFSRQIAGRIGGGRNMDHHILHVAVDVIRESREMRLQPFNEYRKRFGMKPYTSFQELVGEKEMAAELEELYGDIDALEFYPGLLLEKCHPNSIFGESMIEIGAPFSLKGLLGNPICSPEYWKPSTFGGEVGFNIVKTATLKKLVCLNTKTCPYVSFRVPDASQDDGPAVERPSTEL

[30] = Protein binding in human; format: ADME, organism-based; settings: in vivo, read-out: PB (converted)
[31] = Protein binding in rat; format: ADME, organism-based; settings: in vivo, read-out: PB (converted)
[32] = target: Histamine H4 receptor (Rattus norvegicus) (UniProt Q91ZY1); assay: Antagonist activity at rat histamine H4 receptor expressed in HEK293 cells assessed as inhibition of histamine-induced intracellular calcium elevation by FLIPR assay relative to histamine; format: functional, cell-based

pKb (Histamine H4 receptor [1])	EC50 (Histamine H4 receptor [2])	pKb [3]	Ratio Ki [5]	EC50 (Histamine H4 receptor [6])	Ratio Ki [8]	Stability (Liver microsomes [9])	Ki (Histamine H4 receptor [10]; read-out: Ki)	Activity (Cytochrome P450 2D6)	Stability [11]	Ratio Ki (Homo sapiens)	Activity (Cytochrome P450 2C9)	Ratio Ki [15]	Ki (Histamine H4 receptor [21])	Stability (Liver microsomes [25])	Activity (Cytochrome P450 3A4)	fraction unbound [30]	fraction unbound [31]	Compound	Activity (BMMC)	ED50 (Mus musculus [4])	other results
8.5	19.1 nM	–	–	–	–	–	–	–	–	–	–	–	–	–	–	–	–	CN[C@@H]1CCN(c2nc(N)nc3c2Cc2ccccc2-3)C1	–	–	–
8.29	–	7.66	–	–	–	–	–	–	–	–	–	–	–	–	–	–	–	CN[C@@H]1CCN(c2nc(N)nc3c2CCc2ccccc2-3)C1	–	–	–
8.15	–	7.5	–	–	–	–	–	–	–	–	–	–	–	–	–	–	–	CN[C@@H]1CCN(c2nc(N)nc3c2CCCCc2ccccc2-3)C1	inactive	–	–
8.01	6.03 nM	–	1220	4.79 nM	> 2000	200 pmol/min/mg	5.1 nM	Not Active	32.4 pmol/min/mg	470	Not Active	3070	1.45 nM	27.3 pmol/min/mg	Not Active	0.39	0.34	Nc1nc2c(c(N3CCNCC3)n1)CCCc1ccc(F)cc1-2	Active	10 µmol/kg	Activity [7]: inactive; Activity [12]: inactive; Activity [13]: inactive; Activity [14]: inactive; bioavailability [16]: 18%; Activity [17]: inactive; Ratio Ki [18]: > 1290; ED50 (Mus musculus [19]): 134 µmol/kg; Ratio Ki [20]: 765; Ratio Ki [22]: > 1820; half-life [23]: 3.5 h; Ratio Ki [24]: 850; Vd [26]: 18.2 L/kg; clearance [27]: 60 mL/min/kg; Activity [28]: inactive; Activity [29]: inactive
7.24	55 nM	–	125	45.7 nM	480	108 pmol/min/mg	39.8 nM	Not Active	10.9 pmol/min/mg	56	Not Active	11	4.47 nM	28.5 pmol/min/mg	Not Active	0.41	0.24	Nc1nc2c(c(N3CCNCC3)n1)CCCCC2c1ccccc1 (stereo not drawn)	Active	10 µmol/kg	bioavailability [16]: 31%; Ratio Ki [18]: > 160; ED50 (Mus musculus [19]): 79 µmol/kg; Ratio Ki [20]: 2.2; Ratio Ki [22]: > 230; half-life [23]: 3.2 h; Ratio Ki [24]: 81; Vd [26]: 22 L/kg; clearance [27]: 80 mL/min/kg
8.08	15.5 nM	–	–	–	–	192 pmol/min/mg	–	Not Active	195 pmol/min/mg	–	Not Active	–	5.37 nM	102 pmol/min/mg	Not Active	0.22	0.3	CN1CCN(c2nc(N)nc3c2CCc2ccccc2-3)CC1	–	–	Efficacy [32]: 76%; Ki (Histamine H4 receptor [10]; read-out: pKi (converted)): 15.5 nM

From ChEMBL document CHEMBL1140165, “Rotationally constrained 2,4-diamino-5,6-disubstituted pyrimidines: a new class of histamine H4 receptor antagonists with improved druglikeness and in vivo efficacy in pain and inflammation models” (J Med Chem, 2008)
